Source: US11396517B1, “Exo-aza spiro inhibitors of menin-MLL interaction” (Janssen Pharmaceutica NV, priority 2017, dated 2022)
Like-named read-outs stand apart in the source and are kept apart here.

Target: T1, menin (Homo sapiens, UniProt O00255, T541A)
T1 construct: Menin (a.a. 1-610-6×his tag)
T1 sequence (O00255 with tags, fused parts or gaps T541A): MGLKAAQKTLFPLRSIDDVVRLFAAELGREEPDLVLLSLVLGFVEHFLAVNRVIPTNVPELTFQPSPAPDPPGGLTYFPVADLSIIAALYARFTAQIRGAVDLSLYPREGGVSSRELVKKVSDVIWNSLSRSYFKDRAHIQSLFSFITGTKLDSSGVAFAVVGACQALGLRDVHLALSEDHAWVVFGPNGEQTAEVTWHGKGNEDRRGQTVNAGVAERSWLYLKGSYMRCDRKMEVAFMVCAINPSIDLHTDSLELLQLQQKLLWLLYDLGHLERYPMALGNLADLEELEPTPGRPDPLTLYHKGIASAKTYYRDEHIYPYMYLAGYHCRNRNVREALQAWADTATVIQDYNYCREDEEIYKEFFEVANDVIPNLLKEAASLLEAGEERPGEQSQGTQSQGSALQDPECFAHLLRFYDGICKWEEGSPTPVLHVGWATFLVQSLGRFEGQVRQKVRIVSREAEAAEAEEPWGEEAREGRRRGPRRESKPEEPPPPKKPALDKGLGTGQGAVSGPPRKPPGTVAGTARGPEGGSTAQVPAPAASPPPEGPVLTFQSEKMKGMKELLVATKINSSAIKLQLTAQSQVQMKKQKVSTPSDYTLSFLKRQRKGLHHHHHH
Test: Menin/MLL homogenous time-resolved fluorescence (HTRF) assay
Assay type: binding
Procedure: 2) Menin/MLL Homogenous Time-Resolved Fluorescence (HTRF) Assay
To an untreated, white 384-well microtiter plate was added 40 nL 200× test compound in DMSO and 4 μL 2× terbium chelate-labeled menin (vide infra for preparation) in assay buffer (40 mM Tris HCl, pH 7.5, 50 mM NaCl, 1 mM DTT and 0.05% Pluronic F-127). After incubation of test compound and terbium chelate-labeled menin for 5 min at ambient temperature, 4 μL 2× FITC-MBM1 peptide (FITC-β-alanine-[…]-NH2 (SEQ ID NO: 23)) in assay buffer was added, the microtiter plate centrifuged at 1000 rpm for 1 min and the assay mixtures incubated for 15 min at ambient temperature. The relative amount of menin.FITC-MBM1 complex present in an assay mixture is determined by measuring the homogenous time-resolved fluorescence (HTRF) of the terbium/FITC donor/acceptor fluorphore pair using a BMG Pherastar plate reader (ex. 337 nm/terbium em. 490 nm/FITC em. 520 nm) at ambient temperature. The degree of fluorescence resonance energy transfer (the HTRF value) is expressed as the ratio of the fluorescence emission intensities of the FITC and terbium fluorophores (Fern 520 nm/Fem 490 nm). The final concentrations of reagents in the binding assay are […] terbium chelate-labeled menin (location 2), 75 nM FITC-MBM1 peptide and 0.5% DMSO in assay buffer. Dose-response titrations of test compounds are conducted using an 11 point, three-fold serial dilution scheme, starting typically at 25 μM (location 1) or starting typically at 10 μM (location 2).
Compound potencies were determined by first calculating % inhibition at each compound concentration according to equation 1: % inhibition=((HC−LC)−(HTRF^compound−LC))/(HC−LC))*100 (Eqn 1)
Where LC and HC are the HTRF values of the assay in the presence or absence of a saturating concentration of a compound that competes with FITC-MBM1 for binding to menin, and HTRF^compound is the measured HTRF value in the presence of the test compound. FTC and LC HTRF values represent an average of at least 16 replicates per plate.
Where Bottom and Top are the lower and upper asymptotes of the dose-response curve, respectively, IC50 is the concentration of compound that yields 50% inhibition of signal and h is the Hill coefficient.
Preparation of Terbium cryptate labeling of Menin: Menin (a.a. 1-610-6×his tag (“6×his” disclosed as SEQ ID NO: 3)) was labeled with terbium cryptate as follows. 2 mg of Menin was buffer exchanged into 1× phosphate buffered saline. 16 uM Menin was incubated with 4-fold molar excess NHS-terbium cryptate (Cisbio Bioassays, Bedford, Mass.) for 2 hours at room temperature. The labeled protein was purified away from free label by running the reaction over a Superdex 200 Increase 10/300 GL column at 0.75 ml/min. Peak fractions were collected, aliquoted and frozen at −80° C.

[1] = location 2, read-out: (2) location 2 Menin HTRF assay (IC50 (nM))
[2] = location 1, read-out: (2) location 1 Menin HTRF assay (IC50 (nM))

| SMILES | IC50 [1] | IC50 [2] |
| --- | --- | --- |
| CC(=O)Nc1ccc(NC2CC3(CCN(c4ncnc5sc(CC(F)(F)F)cc45)C3)C2)cc1 (single isomer, unassigned) [Compound 332] | 330 nM | – |
| CN1CCN(C(=O)c2ccc(NC3CC4(CCN(c5ncnc6sc(CC(F)(F)F)cc56)C4)C3)cc2)CC1 (single isomer, unassigned) [Compound 337] | 2300 nM | – |
| CN1CCN(C(=O)c2ccc(NC3CC4(CCN(c5ncnc6sc(CC(F)(F)F)cc56)C4)C3)cc2)CC1 (single isomer, unassigned) [Compound 338] | 89.5 nM | – |
| Nc1nc(N2CCC3(CC(Nc4ccc5[nH]c(=O)[nH]c5c4)C3)C2)c2cc(CC(F)(F)F)sc2n1 (single isomer, unassigned) [Compound 383] | 70.8 nM | – |
| N#CCc1ccc(NC2CCC3(C2)CN(c2nc(N)nc4sc(CC(F)(F)F)cc24)C3)cc1 (single isomer, unassigned) [Compound 388] | 217 nM | – |
| N#CCc1ccc(NC2CCC3(C2)CN(c2nc(N)nc4sc(CC(F)(F)F)cc24)C3)cc1 (single isomer, unassigned) [Compound 389] | 96 nM | – |
| CNc1nc(N2CCC3(CC(Nc4ccc(CC#N)cc4)C3)C2)c2cc(CC(F)(F)F)sc2n1 (single isomer, unassigned) [Compound 391] | 163 nM | – |
| CNc1nc(N2CCC3(CC(Nc4ccc(CC#N)cc4)C3)C2)c2cc(CC(F)(F)F)sc2n1 (single isomer, unassigned) [Compound 392] | 16.8 nM | – |
| CNc1nc(N2CCC3(CC(Nc4ccc5[nH]c(=O)[nH]c5c4)C3)C2)c2cc(CC(F)(F)F)sc2n1 (single isomer, unassigned) [Compound 395] | 113 nM | – |
| COC[C@@H]1CN(C(=O)c2ccc(NC3CC4(CCN(c5ncnc6sc(CC(F)(F)F)cc56)C4)C3)cc2)CCO1 (single isomer, unassigned) [Compound 409] | 1100 nM | – |
| O=C(c1ccc(NC2CC3(CCN(c4ncnc5sc(CC(F)(F)F)cc45)C3)C2)cc1)N1CC2(COC2)C1 (single isomer, unassigned) [Compound 414] | 100 nM | – |
| FC(F)(F)Cc1cc2c(N3CC4(CC[C@@H](NC5(c6ccccc6)CC5)C4)C3)ncnc2s1 (stereo in doubt) [Compound 112] | 313 nM | – |
| FC(F)(F)Cc1cc2c(N3CC4(CC[C@H](NC5(c6ccccc6)CC5)C4)C3)ncnc2s1 (stereo in doubt) [Compound 113] | 164 nM | – |
| COc1nc(N2CC3(CC[C@@H](NCc4cccc(-c5cc[nH]n5)c4)C3)C2)c2cc(CC(F)(F)F)sc2n1 (stereo in doubt) [Compound 115] | 160 nM | – |
| N#CCc1ccc(N[C@@H]2CC[C@]3(CCN(c4ncnc5sc(CC(F)(F)F)cc45)C3)C2)cc1 (stereo in doubt) [Compound 146] | 23.7 nM | – |
| N#CCc1cccc(C(=O)NC2CC3(CCN(c4ncnc5sc(CC(F)(F)F)cc45)C3)C2)c1 (stereo not drawn) [Compound 8] | 1010 nM | 1250 nM |
| CC(C)(C#N)c1cccc(C(=O)NC2CC3(CCN(c4ncnc5sc(CC(F)(F)F)cc45)C3)C2)c1 (stereo not drawn) [Compound 9] | 1220 nM | 3810 nM |
| N#CCc1cccc(C(=O)NC2CCC3(C2)CN(c2ncnc4sc(CC(F)(F)F)cc24)C3)c1 (stereo not drawn) [Compound 18] | 1620 nM | 3840 nM |
| CC(C)(C#N)c1cccc(C(=O)NC2CCC3(C2)CN(c2ncnc4sc(CC(F)(F)F)cc24)C3)c1 (stereo not drawn) [Compound 19] | 3560 nM | 3630 nM |
| N#CCc1ccc(C(=O)NC2CCC3(C2)CN(c2ncnc4sc(CC(F)(F)F)cc24)C3)cc1 (stereo not drawn) [Compound 20] | 2790 nM | 2020 nM |
| O=S(=O)(NC1CC2(CCN(c3ncnc4sc(CC(F)(F)F)cc34)C2)C1)c1ccccc1 (stereo not drawn) [Compound 24] | 419 nM | – |
| O=C(NC1CCC2(C1)CN(c1ncnc3sc(CC(F)(F)F)cc13)C2)c1cccc(-c2cc[nH]n2)c1 (stereo not drawn) [Compound 30] | 3890 nM | – |

| SMILES | IC50 [1] | IC50 [2] |
| --- | --- | --- |
| O=C(NC1CC2(CCN(c3ncnc4sc(CC(F)(F)F)cc34)C2)C1)c1ccccc1 (stereo not drawn) [Compound 36] | 7520 nM | – |
| O=S(=O)(NC1CCC2(CCN(c3ncnc4sc(CC(F)(F)F)cc34)C2)C1)c1ccccc1 (stereo not drawn) [Compound 39] | 1440 nM | – |
| Cn1cc(NC2CCC3(C2)CN(c2ncnc4sc(CC(F)(F)F)cc24)C3)cn1 (stereo not drawn) [Compound 43] | 1750 nM | – |
| O=C1CN(C(=O)c2ccc(NC3CC4(CCN(c5ncnc6sc(CC(F)(F)F)cc56)C4)C3)cc2)CCN1 (stereo not drawn) [Compound 104] | 16.6 nM | – |
| N#CCc1cccc(NC2CCC3(C2)CN(c2ncnc4sc(CC(F)(F)F)cc24)C3)c1 (stereo not drawn) [Compound 114] | 157 nM | – |
| COc1nc(N2CC3(CCC(NCc4ccc5[nH]c(=O)[nH]c5c4)C3)C2)c2cc(CC(F)(F)F)sc2n1 (stereo not drawn) [Compound 117] | 111 nM | – |
| CNC(=O)c1ccc(NC2CCC3(C2)CN(c2nc(NC)nc4sc(CC(F)(F)F)cc24)C3)cc1 (stereo not drawn) [Compound 123] | 137 nM | – |
| N#CCc1cccc(S(=O)(=O)NC2CCC3(CCN(c4ncnc5sc(CC(F)(F)F)cc45)C3)C2)c1 (stereo not drawn) [Compound 124] | 2530 nM | – |
| N#CCc1ccc(S(=O)(=O)NC2CCC3(CCN(c4ncnc5sc(CC(F)(F)F)cc45)C3)C2)cc1 (stereo not drawn) [Compound 125] | 5940 nM | – |
| N#CCc1ccc(C(=O)NC2CCC3(CCN(c4ncnc5sc(CC(F)(F)F)cc45)C3)C2)cc1 (stereo not drawn) [Compound 126] | > 10000 nM | – |
| N#CCc1cccc(C(=O)NC2CCC3(CCN(c4ncnc5sc(CC(F)(F)F)cc45)C3)C2)c1 (stereo not drawn) [Compound 127] | > 10000 nM | – |
| O=C(NC1CCC2(CCN(c3ncnc4sc(CC(F)(F)F)cc34)C2)C1)c1ccccc1 (stereo not drawn) [Compound 128] | > 10000 nM | – |
| N#Cc1cccc(NC2CCC3(CCN(c4ncnc5sc(CC(F)(F)F)cc45)C3)C2)c1 (stereo not drawn) [Compound 132] | 180 nM | – |
| CC(C)(C#N)c1ccc(NC2CC3(CCN(c4ncnc5sc(CC(F)(F)F)cc45)C3)C2)cc1 (stereo not drawn) [Compound 169] | 425 nM | – |
| N#CCc1cccc(NC2CC3(CCN(c4ncnc5sc(CC(F)(F)F)cc45)C3)C2)c1 (stereo not drawn) [Compound 201] | 175 nM | – |
| Cc1nc(N2CCC3(CC(Nc4ccccc4)C3)C2)c2cc(CC(F)(F)F)sc2n1 (stereo not drawn) [Compound 264] | 913 nM | – |
| O=c1ccc(NC2CCC3(C2)CN(c2ncnc4sc(CC(F)(F)F)cc24)C3)c[nH]1 (stereo not drawn) [Compound 283] | 2160 nM | – |
| FC(F)(F)Cc1cc2c(N3CC4(CCC(Nc5ccc6cc[nH]c6c5)C4)C3)ncnc2s1 (stereo not drawn) [Compound 284] | 423 nM | – |
| CNc1nc(N2CC3(CCC(Nc4ccc(CC#N)cc4)C3)C2)c2cc(CC(F)(F)F)sc2n1 (stereo not drawn) [Compound 400] | 373 nM | – |
| CNc1nc(N2CC3(CCC(Nc4ccc5oc(=O)[nH]c5c4)C3)C2)c2cc(CC(F)(F)F)sc2n1 (stereo not drawn) [Compound 401] | 331 nM | – |
| CNc1nc(N2CC3(CCC(Nc4ccc5[nH]c(=O)[nH]c5c4)C3)C2)c2cc(CC(F)(F)F)sc2n1 (stereo not drawn) [Compound 402] | 906 nM | – |
